# Target: T1, Mtm (Mtm^WT::GFP) (Drosophila melanogaster, UniProt Q9VMI9)
# T1 construct: C-terminal GFP tag, overexpressed (da-Gal4) in third instar larvae, whole larval lysate; ~100 kD
# T1 sequence (Q9VMI9 1-619): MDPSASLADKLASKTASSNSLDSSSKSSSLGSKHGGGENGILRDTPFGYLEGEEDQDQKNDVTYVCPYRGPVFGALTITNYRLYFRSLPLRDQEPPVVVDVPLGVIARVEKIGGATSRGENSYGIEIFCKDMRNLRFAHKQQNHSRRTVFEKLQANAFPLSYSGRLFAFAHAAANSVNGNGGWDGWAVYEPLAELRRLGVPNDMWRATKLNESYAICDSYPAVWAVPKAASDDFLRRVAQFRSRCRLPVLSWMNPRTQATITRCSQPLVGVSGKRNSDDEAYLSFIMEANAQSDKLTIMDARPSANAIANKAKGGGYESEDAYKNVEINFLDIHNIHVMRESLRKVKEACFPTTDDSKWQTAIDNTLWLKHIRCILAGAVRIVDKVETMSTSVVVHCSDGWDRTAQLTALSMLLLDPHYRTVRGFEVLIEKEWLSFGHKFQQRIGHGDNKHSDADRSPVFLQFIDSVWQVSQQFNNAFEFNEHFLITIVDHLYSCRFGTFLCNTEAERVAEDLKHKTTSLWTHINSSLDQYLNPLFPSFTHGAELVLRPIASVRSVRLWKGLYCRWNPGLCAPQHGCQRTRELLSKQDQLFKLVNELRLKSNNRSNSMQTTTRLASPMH
# Assay: LC-MS/MS in vitro 3-phosphatase assay, overexpressing larval lysate vs control lysate
# Assay type: biochemical
# Conditions: pH 7.4 lipid suspension, phosphatidylserine, 15 min, 37 °C; 10 ug lysate protein
smiles,measurement,value
CCCCC/C=C\C/C=C\C/C=C\C/C=C\CCCC(=O)O[C@H](COC(=O)CCCCCCCCCCCCCCCC)COP(=O)(O)O[C@@H]1[C@H](O)[C@H](OP(=O)(O)O)[C@@H](O)[C@H](O)[C@H]1O [17:0 20:4 PI3P],"3-phosphatase activity, overexpressing vs control lysate",lysates with Mtm overexpression showed significantly higher PI3P 3-phosphatase activity compared with control lysates
